# Legend:
# Assay type in all cases: cell-based, human
# [1] = system: dermal fibroblasts from type I diabetic patients and matched controls; test: Bradykinin-induced Ca2+ mobilization in fura-2 AM loaded fibroblasts (fluorescence spectrophotometry)
# Procedure: The following examples describe novel findings upon which the present invention is based, at least in part. In particular, the present inventors have determined the effects of tumor necrosis factor alpha (TNF-α) treatment, and the diabetic environment (elevated glucose and fatty acid), on bradykinin-induced Ca^2+ mobilization in dermal fibroblasts from type I diabetic patients and matched controls. Fibroblasts were exposed to TNF-α (10 ng/ml) for up to 48 hours. Cells in suspension were then loaded with fura-2 acetoxymethyl ester, and bradykinin-induced Ca^2+ mobilization was measured using fluorescence spectrophotometry. […] With 24 hours of treatment, TNF-α-induced increments in peak bradykinin response were three-fold greater in diabetics than in controls (P<0.001).
# Briefly, fibroblasts from 7 control and 10 diabetic donors (passages 7 to 30) were loaded with fura-2 AM and Ca^2+ mobilization in response to increasing concentrations of bradykinin was determined.
# Briefly, paired flasks of cells were treated with TNF-α or left untreated. Fura-loaded cells were stimulated with 20 nM bradykinin and Ca^2+ mobilization was measured after 200 seconds. […] Fibroblasts were fura-2 AM loaded and Ca^2+ mobilization in response to increasing concentrations of bradykinin was determined. Each bar represents the mean of 14 to 33 separate determinations. In cells from both control and diabetic donors, TNF-α treatment augmented bradykinin induced Ca^2+ mobilization, although to a much greater extent in the diabetic donor. […] A small increase in the final equilibrium level of Ca^2+ was also seen consistently in the diabetic fibroblasts, but not in the controls.
# The difference between control and diabetic cells can be seen more clearly through the bradykinin-induced increment between untreated and TNF-α treated. […] The change in peak response to bradykinin after TNF-α treatment was measures in fibroblasts from 7 control and 10 diabetic donors (3-8 separate experiments per donor). Each bar on the graph represents the mean of 14 to 34 separate determinations. […] ANOVA indicated an overall difference between control and diabetic (p<0.001), and specific differences between control and diabetic (Tukey p<0.001) at every bradykinin concentration above 1 nM.
# Following the initial bradykinin induced peak of Ca^2+ mobilized from the ER, a sustained elevation of Ca^2+ occurs lasting for minutes. This sustained elevation in steady state Ca^2+ requires Ca^2+ entry from the extracellular space. Inappropriate elevation of Ca^2+ may lead to cell injury, apoptosis and death by activation of phospholipases, nucleases, and proteases (Cheung et al. (1986) N. Engl. J. Med. 314:1670-1676): thus, inappropriately elevated Ca^2+ in diabetic cells could be an important mechanisms for initiating diabetic pathology. Because of the important signal transducing properties of the sustained phase of the Ca^2+ response, the effects of TNF-α treatment on the steady state were examined. Briefly, fibroblasts from 7 control and 10 diabetic donors were exposed to 10 ng/ml TNF-α for 24 hours prior to bradykinin stimulation. The magnitude of the final steady state, or resting, intracellular [Ca^2+] following stimulation with bradykinin was determined. Each bar represents the mean of 14 to 34 separate determinations.
# To determine whether the TNF-α induced increase in the peak bradykinin response was due to mobilization of Ca^2+ from intracellular stores, the Ca^2+ chelator EGTA was added prior to stimulation with bradykinin. FIG. 9 illustrates an experiment in which fibroblasts were treated with TNF-α for 24 hours or left untreated and the peak bradykinin response measured in the presence or absence of 2 mM EGTA. In these traces, 2 mM EGTA was added 10 seconds prior to stimulation with 200 nM bradykinin. The peak response was unaltered by EGTA in untreated and TNF-α treated cells. […]
# [2] = system: fibroblasts from control and IDDM donors; test: Thapsigargin-mediated emptying of intracellular Ca2+ stores in fura-loaded fibroblasts
# Procedure: Thapsigargin, an irreversible inhibitor of the intracellular Ca^2+-ATPase, was used to determine if the TNF-α induced increment in peak bradykinin response was mediated by changes in the bradykinin signal transduction cascade, or was at the level of the intracellular Ca^2+ stores by irreversibly inhibiting their refilling FIG. 10 illustrates representative traces in which thapsigargin was added to untreated and TNF-α treated cells from control and IDDM donors. […] Potential mechanisms include alterations in modulation of Ca^2+-ATPase activity, changes in the ATPase itself or alterations in intraluminal signaling.
# calreticulin = test: Western blot of calreticulin expression in fibroblasts; conditions: 24 hr of TNF-α treatment
# Excerpt: Although TNF-α is known to turn on a multitude of genes in many different cell types, including the fibroblast (Tessier et al. (1993) Arthritis & Rheumatism 36:1528-1539; Rathanaswami et al. (1993) Arthritis & Rheumatism 36:1295-1304; Butler et al. (1994) Eur. Cytokine Network 5:441-448), it is possible that new protein synthesis is required to replete a component of the signal transduction apparatus that is constantly being turned over.
compound,measurement,setting,value
"O=C(O)CN(CCOCCOCCN(CC(=O)O)CC(=O)O)CC(=O)O [EGTA, reference compound]",effect on final [Ca2+]i after bradykinin,[1]; 2 mM EGTA added 10 seconds prior to 200 nM bradykinin,eliminate the increase in final [Ca^2+]I
same,effect on peak bradykinin response,"[1]; 2 mM EGTA added 10 seconds prior to 200 nM bradykinin, untreated and TNF-α treated cells",unaltered
"C[C@@H]1C[C@@H]([C@H](O)CC2CC(=O)NC(=O)C2)C(=O)[C@@H](C)C1 [cycloheximide, reference compound]",effect on TNF-α induced increment in bradykinin response,[1]; protein synthesis inhibitor given with TNF-α,blocked the TNF-α induced increment
"CCCCCCCC/C=C\CCCCCCCC(=O)O [oleate, oleic acid]",effect on peak bradykinin response (% of 5.6 mM glucose),"[1]; 2 mM oleate with 11 mM glucose, 3 control and 4 diabetic donors, ANOVA p<0.001",significant effects
same,effect on steady state [Ca2+]i following bradykinin stimulation,"[1]; 2 mM oleic acid with 11 mM glucose, 3 control and 4 diabetic donors, p<0.001",significant effect
"C/C=C(/C)C(=O)O[C@H]1C(C)=C2[C@H]([C@@H]1OC(=O)CCCCCCC)[C@@](C)(OC(C)=O)C[C@H](OC(=O)CCC)[C@@]1(O)[C@H]2OC(=O)[C@@]1(C)O [thapsigargin, reference compound]",effect of thapsigargin on cytosolic Ca2+,[2]; untreated and TNF-α treated cells,transient rise of cytosolic Ca^2+
TNF-α,effect of TNF-α on thapsigargin-induced Ca2+ transients,[2]; TNF-α treated versus untreated fibroblasts,greater in TNF-α treated fibroblasts than in untreated cells
same,treatment time at which maximum TNF-α induced increment in peak bradykinin response is achieved,"[1]; 10 ng/ml TNF-α, 3 donors, not diminished by 48 hr",≤ 24 h
same,"TNF-α induced increment in bradykinin-induced Ca2+ mobilization, diabetic cells versus control cells","[1]; TNF-α 10 ng/ml for 24 hours, 7 control and 10 diabetic donors",3 fold
same,effect on steady state Ca2+ following the bradykinin response,"[1]; TNF-α 10 ng/ml for 24 hours, control and diabetic donors, ANOVA p<0.001",significant elevations of steady state Ca^2+
same,effect on bradykinin-induced Ca2+ mobilization,"[1]; TNF-α 10 ng/ml, 24 hour incubation, 20 nM bradykinin, control and diabetic donors",potentiated bradykinin-induced Ca^2+ mobilization
same,treatment time from which increases in bradykinin-induced Ca2+ mobilization were observed,"[1]; TNF-α 10 ng/ml, bradykinin 1 nM to 1 μM, controls and diabetics",≥ 1 h
same,effect on basal intracellular Ca2+,"[1]; TNF-α 10 ng/ml, p<0.05",significant increase in basal Ca^2+ in diabetic but not control cells
same,"effect on peak bradykinin response in control donors, diabetic milieu experiment","[1]; control donors, 48 hours FFA medium, TNF-α final 24 hours, data not shown",little or no effect
same,effect on calreticulin expression,calreticulin,no change in calreticulin expression

# Source: patent US6620583B2, “Diagnostic screens for type 1 diabetes (IDDM)” (Boston Medical Center Corporation, priority 1998, dated 2003)
